From ChEMBL document CHEMBL1150734, “Marine soft corals of the genus Pseudopterogorgia: a resource for novel anti-inflammatory diterpenoids” (J Nat Prod, 1987)
≈ marks a conversion by molar mass, not a printed value.

Legend:
Mus musculus [1] = assay: Antiinflammatory activity in mouse assessed as reduction PMA-induced ear edema at 50 ug/ear administered relative to control; assay type: functional; set-up: scale not given: the % may be the effect or the level left; details: at 50 µg/ear
[2] = Inhibition of cell division of fertilized sea urchin egg; details: echinoidea
[3] = Inhibition of nuclear division of fertilized sea urchin egg; details: echinoidea
[4] = Inhibition of tubulin polymerization
Mus musculus [5] = assay: Antiinflammatory activity in mouse assessed as reduction PMA-induced ear edema; assay type: functional
Mus musculus [6] = assay: Antiinflammatory activity in ip dosed mouse assessed as reduction PMA-induced ear edema; assay type: functional
Mus musculus [7] = assay: Antiinflammatory activity in ip dosed mouse assessed as inhibition of writhing; assay type: functional

Compound	Activity (Mus musculus [1]) [%]	ED50 (Mus musculus [6]) [mg/kg]	ED50 (Mus musculus [7]) [mg/kg]	other results
CC(=O)O[C@H]1[C@H](O)[C@H](Oc2c(O)c(C)cc3c2[C@@H](C)CC[C@@H]3[C@@H](C)CCC=C(C)C)OC[C@H]1O	75			
CC(=O)O[C@@H]1CO[C@@H](Oc2c(O)c(C)cc3c2[C@@H](C)CC[C@@H]3[C@@H](C)CCC=C(C)C)[C@@H](O)[C@@H]1O	75			
C=C(C)[C@H]1C2=CC(C(=O)OC)=C(C[C@H](C(C)C)[C@H]3O[C@H]3C3=C[C@H]1OC3=O)O2 [PSEUDOPTEROLIDE]	83			Activity [2]: Non-toxic; Activity [3]: Non-toxic; ED50 [4]: 8 µg/mL (≈ 21.5 µM)
CC(C)=C[C@H]1C[C@H](C)[C@H]2CC[C@H](C)c3c(O[C@@H]4OC[C@@H](O)[C@H](O)[C@H]4O)c(O)c(C)c1c32 [PSEUDOPTEROSIN A]	75	10	4	ED50 (Mus musculus [5]): 8.3 µg
CC(=O)O[C@H]1[C@H](Oc2c(O)c(C)c3c4c2[C@@H](C)CC[C@@H]4[C@@H](C)C[C@@H]3C=C(C)C)OC[C@@H](O)[C@@H]1O [PSEUDOPTEROSIN B]	75	10	4	
CC(=O)O[C@@H]1[C@@H](O)[C@H](Oc2c(O)c(C)c3c4c2[C@@H](C)CC[C@@H]4[C@@H](C)C[C@@H]3C=C(C)C)OC[C@H]1O [PSEUDOPTEROSIN C]	75	10	4	
CC(=O)O[C@@H]1CO[C@@H](Oc2c(O)c(C)c3c4c2[C@@H](C)CC[C@@H]4[C@@H](C)C[C@@H]3C=C(C)C)[C@H](O)[C@H]1O [PSEUDOPTEROSIN D]	75	10	4	
CC(C)=CCC[C@H](C)[C@H]1CC[C@H](C)c2c1cc(C)c(O)c2O[C@@H]1OC[C@@H](O)[C@@H](O)[C@@H]1O [SECO-PSEUDOPTEROSIN A]	75			
CC(=O)O[C@@H]1[C@H](Oc2c(O)c(C)cc3c2[C@@H](C)CC[C@@H]3[C@@H](C)CCC=C(C)C)OC[C@@H](O)[C@H]1O [SECO-PSEUDOPTEROSIN B]	75			
